Experimental data from PubChem BioAssay AID192 (DTP/NCI, 2004).
Several values for one entry are separate records, joined by “and”; a condition that tells them apart may be missing. Equal entries are not always repeated. Inconclusive results and toxic doses are left out.

Test system: BDF1 mice, B16 melanoma ip, median survival T/C
Assay: NCI In Vivo Anticancer Drug Screen. Data for tumor model B16 Melanoma (intraperitoneal) in B6D2F1 (BDF1) mice
Settings: endpoint: median survival time, higher = longer survival
How it was run: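 Vehicle-treated animals serve as the reference (C); treated animals (T) are scored for survival or tumor size after tumor transplantation.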

[1] = dose: 0.05 mg/kg/injection, schedule: Q01DX009 (ip), vehicle: saline with Tween-80
[2] = dose: 1.5 mg/kg/injection, schedule: Q01DX009 (ip), vehicle: saline
[3] = dose: 100.0 mg/kg/injection, schedule: Q01DX009 (ip), vehicle: Klucel (hydroxypropylcellulose) (HPC)
[4] = dose: 100.0 mg/kg/injection, schedule: Q04DX003 (ip), vehicle: Klucel (hydroxypropylcellulose) (HPC)
[5] = dose: 200.0 mg/kg/injection, schedule: Q01DX009 (ip), vehicle: Klucel (hydroxypropylcellulose) (HPC)
[6] = dose: 200.0 mg/kg/injection, schedule: Q04DX003 (ip), vehicle: Klucel (hydroxypropylcellulose) (HPC)
[7] = dose: 400.0 mg/kg/injection, schedule: Q01DX009 (ip), vehicle: Klucel (hydroxypropylcellulose) (HPC)
[8] = dose: 400.0 mg/kg/injection, schedule: Q04DX003 (ip), vehicle: Klucel (hydroxypropylcellulose) (HPC)
[9] = dose: 100.0 mg/kg/injection, schedule: Q04DX003 (ip), vehicle: saline with Tween-80
[10] = dose: 200.0 mg/kg/injection, schedule: Q04DX003 (ip), vehicle: saline with Tween-80
[11] = dose: 25.0 mg/kg/injection, schedule: Q01DX009 (ip), vehicle: saline
[12] = dose: 50.0 mg/kg/injection, schedule: Q01DX009 (ip), vehicle: saline
[13] = dose: 100.0 mg/kg/injection, schedule: Q01DX009 (ip), vehicle: saline
[14] = dose: 6.25 mg/kg/injection, schedule: Q01DX009 (ip), vehicle: saline with Tween-80
[15] = dose: 12.5 mg/kg/injection, schedule: Q01DX009 (ip), vehicle: saline with Tween-80
[16] = dose: 25.0 mg/kg/injection, schedule: Q01DX009 (ip), vehicle: saline with Tween-80
[17] = dose: 50.0 mg/kg/injection, schedule: Q01DX009 (ip), vehicle: saline with Tween-80
[18] = dose: 200.0 mg/kg/injection, schedule: Q01DX009 (ip), vehicle: saline with Tween-80
[19] = dose: 3.12 mg/kg/injection, schedule: Q01DX009 (ip), vehicle: saline
[20] = dose: 6.25 mg/kg/injection, schedule: Q01DX009 (ip), vehicle: saline
[21] = dose: 12.5 mg/kg/injection, schedule: Q01DX009 (ip), vehicle: saline

`O=c1[nH]cc(N(CCCl)CCCl)c(=O)[nH]1` was tested, and the T/C [1] was 95 % of control, the T/C (dose: 0.08 mg/kg/injection, schedule: Q01DX009 (ip), vehicle: saline with Tween-80) was 105 % of control and the T/C (dose: 0.14 mg/kg/injection, schedule: Q01DX009 (ip), vehicle: saline with Tween-80) was 112 % of control. The T/C (dose: 0.19 mg/kg/injection, schedule: Q01DX009 (ip), vehicle: saline) was 107 % of control, the T/C (dose: 0.65 mg/kg/injection, schedule: Q01DX009 (ip), vehicle: saline with Tween-80) was 170 % of control and the T/C (dose: 1.1 mg/kg/injection, schedule: Q01DX009 (ip), vehicle: saline with Tween-80) was 205 % of control. The T/C [2] was 185 % of control.
For `Cc1cc(C)cc(-n2nnc3ccccc3c2=O)c1`, the T/C [3] was 108 % of control, the T/C [4] was 95 % of control and the T/C [5] was 100 % of control. The T/C [6] was 91 % of control, the T/C [7] was 86 % of control and the T/C [8] was 93 % of control.
With `NC(=S)N/N=C\c1ncnc2ccccc12` the T/C (dose: 6.25 mg/kg/injection, schedule: Q01DX009 (ip), vehicle: Klucel (hydroxypropylcellulose) (HPC)) was 124 % of control.
In the case of `OC(C#Cc1ccccc1)c1ccccc1` (stereo not given), the T/C (dose: 50.0 mg/kg/injection, schedule: Q04DX003 (ip), vehicle: saline with Tween-80) is reported as 108 % of control, the T/C [9] is reported as 97 % of control and the T/C [10] is reported as 98 % of control.
In the case of `C=CCOCC(O)CN(C)CC1CCCO1` (stereo not given), the T/C [11] is reported as 103 % of control, the T/C [12] is reported as 102 % of control and the T/C [13] is reported as 91 % of control.
In the case of `Cc1ccc(C)c(C2NC(=O)c3ccccc3N2)c1` (stereo not given), the T/C [3] is reported as 121 % of control and the T/C [5] is reported as 115 % of control.
`NCCCNCCCCNC(=O)C(O)NC(=O)CCCCCCN=C(N)N` (stereo not given) was tested, and the T/C (dose: 6.0 mg/kg/injection, schedule: Q01DX009 (ip), vehicle: saline) was 96 % of control, the T/C (dose: 12.0 mg/kg/injection, schedule: Q01DX009 (ip), vehicle: saline) was 96 % of control and the T/C (dose: 24.0 mg/kg/injection, schedule: Q01DX009 (ip), vehicle: saline) was 93 % of control. The T/C (dose: 48.0 mg/kg/injection, schedule: Q01DX009 (ip), vehicle: saline) was 100 % of control.
In the case of `COc1ccc(NC(=S)NNC(=S)NNc2ccccc2)cc1`, the T/C [4] is reported as 97 % of control, the T/C [6] is reported as 93 % of control and the T/C [8] is reported as 86 % of control.
With `O=C(O)CC(NC(=O)c1ccccc1)C(=O)O` (stereo not given) the T/C [14] was 100 % of control, the T/C [15] was 102 % of control and the T/C [16] was 109 % of control. The T/C [17] was 93 % of control and 100 % of control.
For `CCOC(=O)c1ccc(NC(=O)Nc2nncs2)cc1`, the T/C (dose: 6.25 mg/kg/injection, schedule: Q01DX009 (ip), vehicle: distilled water + Tween-80) was 93 % of control, the T/C (dose: 12.5 mg/kg/injection, schedule: Q01DX009 (ip), vehicle: distilled water + Tween-80) was 112 % of control and the T/C (dose: 25.0 mg/kg/injection, schedule: Q01DX009 (ip), vehicle: distilled water + Tween-80) was 95 % of control. For the same compound, the T/C (dose: 50.0 mg/kg/injection, schedule: Q01DX009 (ip), vehicle: distilled water + Tween-80) was 98 % of control.
In the case of `C[C@@H]1CC[C@]2(C)CC[C@]3(C)C(=CC[C@@H]4[C@@]5(C)CC[C@@H](OC(=O)c6ccc(O)cc6)C(C)(C)[C@@H]5C[C@H](O)[C@]43C)[C@@H]2[C@H]1C(=O)O`, the T/C (dose: 0.02 mg/kg/injection, schedule: Q01DX009 (ip), vehicle: saline with Tween-80) is reported as 96 % of control, the T/C [1] is reported as 91 % of control and the T/C (dose: 0.1 mg/kg/injection, schedule: Q01DX009 (ip), vehicle: saline with Tween-80) is reported as 88 % of control.
`CC(=O)Nc1ccc(N=Nc2c(O)c(S(=O)(=O)O)cc3cc(S(=O)(=O)O)ccc23)cc1` was tested, and the T/C [18] was 100 % of control.
In the case of `Nc1ccc(OCc2ccccc2)cc1`, the T/C [16] is reported as 109 % of control.
With `C[CH2][Pb]([CH2]C)([CH2]C)[O][As](=O)(O)c1ccc(N)cc1` the T/C [2] was 98 % of control and the T/C (dose: 3.0 mg/kg/injection, schedule: Q01DX009 (ip), vehicle: saline) was 96 % of control.
For `COc1cc(O)c2c(O)c3c(c4c2c1[C@]1(C4)C(C)=CCCC1(C)C)[C@H](O)[C@@]1(O)CC(=O)C(C(N)=O)=C(O)[C@@]1(O)C3=O`, the T/C (dose: 6.0 mg/kg/injection, schedule: Q01DX009 (ip), vehicle: saline with Tween-80) was 97 % of control, the T/C (dose: 6.25 mg/kg/injection, schedule: Q04DX003 (ip), vehicle: saline with Tween-80) was 112 % of control and the T/C (dose: 12.5 mg/kg/injection, schedule: Q04DX003 (ip), vehicle: saline with Tween-80) was 116 % of control. The T/C (dose: 25.0 mg/kg/injection, schedule: Q04DX003 (ip), vehicle: saline with Tween-80) was 121 % of control.
With `Cc1ccc(NC(=O)Nc2ccc(C)c(NC(=O)Nc3ccc(C)c(Cl)c3)c2)cc1Cl` the T/C [14] was 99 % of control, the T/C [15] was 90 % of control and the T/C [16] was 99 % of control.
In the case of `CC(=O)NC(Cc1cc(I)c(OC(C)=O)c(I)c1)C(=O)O` (stereo not given), the T/C [17] is reported as 100 % of control, the T/C (dose: 100.0 mg/kg/injection, schedule: Q01DX009 (ip), vehicle: saline with Tween-80) is reported as 97 % of control and the T/C [18] is reported as 90 % of control.
With `CCC/C=C/C=C/C1CC(O)C(O)C(=O)C1C=O` (stereo not given) the T/C (dose: 1.6 mg/kg/injection, schedule: Q01DX009 (ip), vehicle: saline with Tween-80) was 105 % of control, the T/C (dose: 3.12 mg/kg/injection, schedule: Q01DX009 (ip), vehicle: saline with Tween-80) was 104 % of control and the T/C [14] was 98 % of control. For the same compound, the T/C [15] was 98 % of control and 100 % of control.
`CC1NCCOC1c1ccccc1` (stereo not given) was tested, and the T/C [19] was 100 % of control, the T/C [20] was 97 % of control and the T/C [21] was 104 % of control. The T/C [11] was 90 % of control and 124 % of control, the T/C [12] was 90 % of control and 113 % of control and the T/C [13] was 111 % of control.
In the case of `CCOC(=O)NC1CCC1NC(=O)OCC` (stereo not given), the T/C [9] is reported as 92 % of control and the T/C [10] is reported as 95 % of control.
For `CC(C)c1c[nH]c(=O)[nH]c1=O`, the T/C [3] was 100 % of control, the T/C [5] was 92 % of control and the T/C [7] was 95 % of control.
`COc1cc(C)c2c(c1C=O)Oc1c(c(C)c(O)c3c1C(O)OC3=O)OC2=O` (stereo not given) was tested, and the T/C [19] was 101 % of control, the T/C [20] was 94 % of control and the T/C [21] was 100 % of control. For the same compound, the T/C [11] was 101 % of control and the T/C [12] was 87 % of control.
`O=[N+]([O-])c1ccc(/C=N/c2ncc(Br)s2)o1` was tested, and the T/C [14] was 95 % of control and the T/C [15] was 93 % of control.
For `NCC(c1ccccc1)c1ccccc1`, the T/C [21] was 100 % of control, the T/C [11] was 91 % of control and the T/C [12] was 91 % of control.
For `CCN(CC)CCOC(=O)c1cccnc1`, the T/C [11] was 100 % of control, the T/C [12] was 105 % of control and the T/C [13] was 102 % of control. The T/C (dose: 200.0 mg/kg/injection, schedule: Q01DX009 (ip), vehicle: saline) was 102 % of control and the T/C (dose: 400.0 mg/kg/injection, schedule: Q01DX009 (ip), vehicle: saline) was 100 % of control.
`CNC(C)CC1CCCCC1` (stereo not given) was tested, and the T/C [19] was 100 % of control, the T/C [20] was 100 % of control and the T/C [21] was 100 % of control. For the same compound, the T/C [11] was 95 % of control.
For `CC1(C)N=C(N)N=C(N)N1c1ccc(OCCOc2ccc(S(=O)(=O)F)cc2)c(Cl)c1`, the T/C (dose: 12.5 mg/kg/injection, schedule: Q04DX003 (ip), vehicle: saline) was 107 % of control and the T/C (dose: 25.0 mg/kg/injection, schedule: Q04DX003 (ip), vehicle: saline) was 121 % of control.
